Results as given in US20220177511A1, “SERIES OF HALOGENATED TETRACYCLIC TRITERPENE DERIVATIVES AND THEIR PREPARATION AND APPLICATION” (SHANGHAI KING-X BIOTECH CO., LTD, priority 2019, published 2022).
≈ marks a conversion by molar mass, not a printed value. Entries after “also recorded” stand apart in the source; their conditions may differ.

Tests used:
[1] = Metabolic stability in human liver microsomes; type: in vitro ADME; conditions: for Metabolic half-life of human liver microsomes: 5 μM compound, 1 mg/mL microsomes, 37° C.
Description: Preparation of the test sample: Compound 1 (prepared in Example 5), 2 (prepared in Example 4), and 5 (cycloastragenol, purchased from Chengdu Jintaihe Company) were dissolved with an appropriate amount of DMSO to obtain a concentration of 10 mM solution.
1) The compound was diluted with DMSO to 0.5 mM, and diluted to 1/20 with PBS before the experiment.
2) Human liver microsomes and potassium phosphate buffer were added to the EP tube respectively and mixed by gentle shaking.
3) Pre-incubate the EP tube in a metal bath at 37° C. for 5 minutes. 4) Compound 1, 2 or 5 were added and incubated at 37° C.
5) Take 100 μl of sample from the tube at 0, 60, 120, 240, and 360 minutes respectively, and add the sample to the stop tube (containing 100 μl of cooled acetonitrile solution). The mixture was shaken vigorously to terminate the reaction and then placed it in a −30° C. refrigerator until analysis.
6) Centrifuge at 14300 r/min and 4° C. for 10 minutes, aspirate the supernatant and place it in a −30° C. refrigerator until analysis.
Column: Shim-pack XR-ODS II, 2.0×75 mm; mobile phase: mobile phase B: aqueous solution containing 0.2% formic acid; mobile phase A: acetonitrile solution; mobile phase ratio: […]

[2] = Solubility test in water and FaSSIF; type: physicochemical; conditions: 37° C., up to 24 hours
C57 mouse CHF model = experiment: In vivo efficacy on chronic heart failure in mice (coronary artery ligation, echocardiography), enalapril control; conditions: positive control 2 mg/kg, p<0.0001 (FIG. 6)
Description: C57 mouse coronary artery ligation method was used in this experiment to prepare the mouse CHF model. The differences in echocardiography, hemodynamics and histopathology of the model were observed after administration. Test substance: compound 2. Solvent: 0.3% sodium carboxymethyl cellulose. Dosage: 1 mg/kg, 3 mg/kg, 10 mg/kg, 30 mg/kg and 100 mg/kg. Route of administration: intragastric. Control drug: enalapril 2 mg/kg. Strain: C57 mouse; Age: 7 weeks; Weight: 18-20 g; Gender: Male; Grade: SPF C57 mouse CHF model was established by coronary artery ligation method in this experiment. The differences in echocardiography, hemodynamics and histopathology of the model were observed after administration. 5 dose groups were set for compound 2 in this experiment. Enalapril was selected as the positive control. Once daily for 28 consecutive days. The doses for each group was 1 mg/kg, 3 mg/kg, 10 mg/kg, 30 mg/kg and 100 mg/kg. Positive control group: Enalapril (2 mg/kg) was administered after CHF was established. The mice were anesthetized in a box filled with isoflurane. After the mice were anesthetized, the left 4th intercostal space was opened to expose the left atrial appendage and left ventricle. It can be seen that the left coronary artery runs downward from the middle of the left atrial appendage to the anterior wall of the left ventricle. The coronary artery is sutured at a high position about 1 mm from the lower border of the left atrial appendage. After ligation, the myocardium gradually changes from fleshy red to pale white, indicating myocardial infarction. The model is successfully established, and the chest is closed layer by layer. After the spontaneous breathing of the mice recovered, the mice were caged and reared in a day-night cycle with free access to water and food. After being reared for 30 days, the chronic heart failure model was detected by echocardiography, and the mice with successful chronic heart failure model were selected. Qualified CHF mice screened by echocardiography were randomly grouped. Mice were given compound 2 by intragastric administration once daily for 28 consecutive days. The body weight of mice was measured every week, and echocardiography was performed after 28 days of administration. After the […] anesthetized, 1 mm^3 tissue was taken from the hearts of 3 mice in each group, fixed with electron microscope fixative, and detected by transmission electron microscope to observe the ultrastructure of the heart. All remaining heart tissues were fixed with 10% formaldehyde, and stained with HE for histopathology to observe histopathological changes.

[3] = Metabolic stability in rat liver microsomes; type: in vitro ADME; conditions: compared with compound 5 (cycloastragenol)

| Compound | Metabolic half-life of human liver microsomes [1] [h] | Solubility ([2]; FaSSIF (pH 6.5)) [µg/mL] | Solubility ([2]; Water) [µg/mL] | Cardiac output per minute (CO), day 28 vs day 0 (C57 mouse CHF model) | metabolic stability in human liver microsomes ([1]; compared with compound 5 (cycloastragenol)) | metabolic stability in rat liver microsomes [3] |
| --- | --- | --- | --- | --- | --- | --- |
| CC(C)(O)[C@@H]1CC[C@](C)([C@H]2[C@@H](O)C[C@@]3(C)[C@@H]4C[C@H](O)[C@H]5C(C)(C)[C@@H](O)CC[C@@]56C[C@@]46CC[C@]23C)O1 [Compound 5, (2aR,3R,4S,5aS,5bS,7S,7aR,9S,11aR,12aS)-3-((2S,5S)-5-(2-hydroxypropan-2-yl)-2-methyltetrahydrofuran-2-yl)-2a,5a,8,8-tetramethyltetradecahydro-1H,12H-cyclopenta[a]cyclopropa[e]phenanthrene-4,7,9-triol, reference compound] | 0.308 | 49 (≈ 99.9 µM) | 8 (≈ 16.3 µM) |  |  |  |
| CCOC(=O)[C@H](CCc1ccccc1)N[C@@H](C)C(=O)N1CCC[C@H]1C(=O)O [Enalapril, reference compound] |  |  |  | very significant increase |  |  |
| (2aR,3R,4S,5aS,5bS,7S,7aR,9R,11aR,12aS)-9-halogen-3-((2R,5S)-5-(2-hydroxypropan-2-yl)-2-methyltetrahydrofuran-2-yl)-2a,5a,8,8-tetramethyltetradecahydro-1H,12H-cyclopenta[a]cyclopropa[e]phenanthrene-4,7-diol [Compound 1] | 3.893 |  |  |  | relatively stable; also recorded: more stable than cycloastragenol | relatively stable; also recorded: more stable than cycloastragenol |
